Assay results published in US10697024B2, “Methods of determining IMiDS resistance in plasma cell disorders” (The Charlotte Mecklenburg Hospital Authority, priority 2016, dated 2020).

system: CD138-purified plasma cells; test: GEP-based pharmacogenomics of paired plasma cells prior to and 48 hours after an IMiD test dose; assay type: in vivo, human; conditions: MM patients, bone marrow plasma cells, 48 hr after test dose vs. baseline, SAM analysis; Affymetrix U95Av2 (thalidomide 400 mg/d, lenalidomide 25 to 50 mg/d) or U133Plus2.0 (pomalidomide 4 mg/d)
Method: GEP-based pharmacogenomics of paired CD138-purified plasma cells, obtained from patients prior to and 48 hours after administration of test doses of Thal (42 newly diagnosed MM), Len (18 relapsed/refractory MM), or Pom (18 relapsed/refractory MM) were compared using significance analysis of microarrays (SAM).
Plasma cell purifications and GEP, using the Affymetrix U133 Plus 2.0 microarray, were performed as previously described (Ref: Zhan F, Huang Y, Colla S, et al. The molecular classification of multiple myeloma. Blood. 2006; 108:2020-2028.). Samples were hybridized to Affymetrix expression arrays. Affymetrix U133Plus2.0 arrays were used in the pomalidomide study and Affymetrix U95Av2 arrays were used for thalidomide and lenalidomide pharmacogenomics studies. Bone marrow samples from MM patients enrolled in pharmacogenomics study were obtained prior to, and 48 hours after administration of a test dose of thalidomide (n=42 newly diagnosed), lenalidomide (n=18 relapsed/refractory) or pomalidomide (n=18 relapsed refractory). Plasma cell isolation from mononuclear cell fraction was performed by immunomagnetic bead selection with monoclonal anti-human CD138 antibody using the AutoMACS automated separation system (Miltenyi-Biotec) as previously described. Isolated bone marrow plasma cells were processed and analyzed for Gene-expression profiling (GEP) according to previously reported methods. Samples were hybridized to an Affymetrix U133Plus2.0 microarray for pomalidomide study and to an Affymetrix U95Av2 microarray for thalidomide and lenalidomide studies according to the manufacturer's recommendations and then read on GeneChip Scanner 3000 (Affymetrix). The data files were deposited in the ArrayExpress archive under the accession number E-TABM-1138. […]

| SMILES | Probe sets changed (p < 0.05) after 48 hr of IMiD treatment |
| --- | --- |
| Nc1cccc2c1C(=O)N(C1CCC(=O)NC1=O)C2=O (stereo not drawn) [Pomalidomide, pomalidomide] | 4944 |
| Nc1cccc2c1CN(C1CCC(=O)NC1=O)C2=O (stereo not drawn) [Lenalidomide, lenalidomide] | 1304 |
| O=C1CCC(N2C(=O)c3ccccc3C2=O)C(=O)N1 (stereo not drawn) [Thalidomide, thalidomide] | 1398 |
